PMC3576019 (The Journal of steroid biochemistry and molecular biology, 2010)

Tests used:
[1] = biological target: porcine uterine progesterone receptor; conditions: read-out: IC50 for the porcine uterine progesterone receptor; ref [17]; cited from earlier work
[2] = biological target: T1, Progesterone Receptor (Homo sapiens, UniProt P06401); test: Alkaline phosphatase assay in T47D cells; format: cell-based; conditions: 20 h, progesterone at 10nM
T1 sequence (P06401 1-933): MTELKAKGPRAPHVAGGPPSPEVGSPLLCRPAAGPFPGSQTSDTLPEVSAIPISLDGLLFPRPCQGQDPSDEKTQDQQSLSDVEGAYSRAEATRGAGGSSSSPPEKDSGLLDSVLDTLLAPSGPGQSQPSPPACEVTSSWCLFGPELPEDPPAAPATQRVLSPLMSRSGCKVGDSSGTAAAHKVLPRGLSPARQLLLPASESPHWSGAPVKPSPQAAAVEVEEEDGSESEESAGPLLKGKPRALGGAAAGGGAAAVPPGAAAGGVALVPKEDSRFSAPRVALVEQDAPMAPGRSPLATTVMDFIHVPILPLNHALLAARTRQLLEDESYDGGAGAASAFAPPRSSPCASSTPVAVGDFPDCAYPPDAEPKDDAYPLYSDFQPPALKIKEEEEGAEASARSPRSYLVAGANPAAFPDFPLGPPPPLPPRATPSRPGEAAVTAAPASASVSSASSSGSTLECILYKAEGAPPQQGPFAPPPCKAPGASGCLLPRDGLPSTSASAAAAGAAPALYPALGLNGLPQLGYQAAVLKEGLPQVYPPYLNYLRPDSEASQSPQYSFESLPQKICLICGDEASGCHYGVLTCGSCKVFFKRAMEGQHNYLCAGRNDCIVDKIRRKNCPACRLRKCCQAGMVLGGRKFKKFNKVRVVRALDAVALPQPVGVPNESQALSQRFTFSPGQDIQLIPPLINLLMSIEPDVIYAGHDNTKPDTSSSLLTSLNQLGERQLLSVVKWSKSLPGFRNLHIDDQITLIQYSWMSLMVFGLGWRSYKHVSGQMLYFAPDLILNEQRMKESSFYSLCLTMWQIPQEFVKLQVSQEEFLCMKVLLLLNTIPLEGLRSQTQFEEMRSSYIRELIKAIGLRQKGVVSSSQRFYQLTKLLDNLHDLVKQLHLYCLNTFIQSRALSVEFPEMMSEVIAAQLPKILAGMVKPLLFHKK

[3] = tested on: rabbit endometrium; test: McPhail assay in estrogen-primed immature rabbits; format: in vivo; conditions: progesterone alone (method: MPA 0.15mg/kg/day)

For `CC(=O)O[C@H]1[C@@H](O)C=C2C=C3OC(=O)C(C)=C3C[C@]2(C)[C@H]1C` [PF1092A], the IC50 [1] is given as 30 nM.
With `CC(=O)[C@H]1CC[C@H]2[C@@H]3CCC4=CC(=O)CC[C@]4(C)[C@H]3CC[C@]12C` [Progesterone] the “induction of alkaline phosphatase activity” value [2] was “significantly increased alkaline phosphatase activity” and the “progestational histologic changes (McPhail Index), positive control” value [3] was “maximal progestational histologic changes were noted”.
